Laboratory results: US20200392219A1, “EXTRACELLULAR VESICLES COMPRISING MEMBRANE-TETHERED TGF-BETA, COMPOSITIONS AND METHODS OF USE THEREOF” (TRUSTEES OF TUFTS COLLEGE, priority 2017, published 2020)

Legend:
[1] = tested on: CD4+ T cells (ConA-stimulated PBMC); experiment: ConA mitogen-induced CD4+ T cell proliferation in CFSE-stained PBMC (PBMC responder/suppression assay); assay type: cell-based, canine; conditions: for effect of co-added inhibitor on WJ-MSC EV mediated suppression of CD4+ T cell division: 10 μM TGF-βRI inhibitor, 50 μM ZM241385, 0.1 μg/ml neutralizing antibody
Experimental: Serum-free culture medium from canine Wharton's Jelly mesenchymal stem cells (WJ-MSC: CD44^+, CD90^+, CD34^−, CD45^−, MHCII^−, n=6 cell lines) was collected after 48 hours, and extracellular vesicles (WJ-EV) were isolated by differential centrifugation. WJ-EV output was assessed using single vesicle nanoparticle tracking analysis (NTA). CFSE-stained peripheral blood mononuclear cells (PBMC) were collected from healthy dogs (n=8), exposed to Concanavalin A mitogen (ConA; 5 μg/ml) and co-incubated with WJ-MSC (1:10) across transwell membrane (0.4 μm pore size) or with WJ-MSC EV (1:10^4)±10 μM SB431542 (TGFβR1 inhibitor) or TGF-β neutralizing (e.g., inhibiting) antibody (Ab) for 72 hours. Analysis of CFSE fluorescence using FlowJo (v7.6.5) yielded % CD4^+ cells that had undergone division (T-cell proliferation).
PBMC responder assay: Twelve healthy adult purpose-bread Beagle dogs (5 neutered males, 7 spayed females) housed at the Laboratory Animal Medicine department at the Cummings School of Veterinary Medicine at Tufts University served as blood donors under an approved protocol. […] or WJ-MSC were tested in triplicate against a minimum of 3 different PBMC donor cell samples (see Figure legends for ‘n’ of each experiment). Healthy status was confirmed by clinical examination, and hematological and serum biochemical testing within six months of blood sampling. All dogs were fasted for 12 hours prior to peripheral blood sampling. Peripheral blood samples were taken via jugular venipuncture using a 21 gauge needle, and blood was immediately placed into an EDTA collection tube and rotated 1-2 times gently. Blood was diluted 1:1 with cold PBS or centrifuged (1300×g, 10 min) prior to dilution 1:2 in PBS, followed by density-gradient centrifugation using Ficoll-Paque (density 1.077; GE Healthcare Life Sciences) to harvest peripheral blood mononuclear cells (PBMC). PBMC were washed in RPMI (Life Technologies) supplemented with 10% heat-inactivated fetal bovine serum (Gibco), […] (Life Technologies), 100 μM β-mercaptoethanol (Sigma-Aldrich), 10,000 U/ml penicillin-streptomycin, 2 mM L-glutamine (Life Technologies), and 2.2 mg/mL of sodium bicarbonate (Thermo Fisher Scientific) (complete RPMI, ‘cRPMI’). For mitogen induced lymphocytes proliferation assays, PBMC were suspended in 1 ml cRPMI and 0.5 μof 10 mM carboxyfluorescein succinimidyl ester (CFSE, Thermo Fisher Scientific) and were incubated (10 min). For initial characterization of WJ-MSC effects on responder PBMC, PBMC were plated on a 24-well plate on the top of a 0.4 μm Transwell (Corning) across from the WJ-MSC in a 10:1 ratio (PBMC:MSC) in a total volume of 1 ml medium (n=3 technical replicates/sample). All plates were incubated at 37° C. in the dark for 72 hours prior to analysis.
Dose-responses of TV MSC-EV: To investigate the dose response of PBMC to WJ-MSC EV, the […] were plated on a 96-well plate in cRPMI with addition of 1 mM ATP, with or without 5 μg/ml Concanavalin A (ConA, Sigma-Aldrich). Responder PBMC were incubated with WJ-MSC EV in a total volume of 200 μL medium (n=3 technical replicates per sample). PBMC were incubated with WJ-MSC EV in a 1:10^2, 1:10^3, or 1:10^4 (PBMC:EV) ratio. After 72 hours of incubation, the PBMC were collected and surface stained for CD4 (rat anti-canine CD4-Alexa 647, clone YKIX302.9, AbD Serotec). Cells were stained for 30 minutes, washed twice with cold PBS and 5% FBS, and resuspended in 200 μl PBS and 5% FBS with 5 μl 7AAD (Becton Dickinson) for analysis by flow cytometry (Accuri C6, Becton Dickinson). The effect of WJ-MSC or WJ-MSC EV on CD4-positive (CD4^+) T cell (i.e., T helper cell) proliferation (percentage of cells proliferating, number of divisions for proliferating cells) was measured by evaluating CFSE fluorescence utilizing the FlowJo® proliferation platform (FlowJo, V10, Ashland, Oreg.) after gating on the viable CD4^+ lymphocyte population. […]

WJ-MSC = experiment: EV (exosome) output from WJ-MSC under GW4869, by nanoparticle tracking analysis; assay type: cell-based, canine
Experimental: Particle size distribution using nanoparticle tracking analysis (NTA): Samples were analyzed using a NanoSight N300 unit (Malvern) equipped with a 488 nm (blue) laser module and Nanoparticle Tracking Analysis 3.0 software. All samples were diluted in sterile PBS to a concentration of 1-10×10^8 particles/mL for analysis. Specific NTA settings were optimized for each sample, with fixed settings of temperature (23° C.), screen gain (1.0), infusion flow rate (5 μL/min), and camera level set at 12-14 depending on sample characteristics. Five videos were recorded for each sample (30-120 s video length) with all settings remaining constant within each sample source to minimize variation. […] The NTA unit was periodically evaluated for accuracy of size determination using polystyrene beads of known size (100 and 200 nm).
EV depletion and enzymatic digestion experiments: EV were isolated as described, resuspended in 5 ml PBS, and divided into 5 fractions of 1 ml each. […] The EV sediment was resuspended in PBS and particle numbers were quantified using nanoparticle tracking analysis (NTA) as described supra. […] The retentate was resuspended in 1 ml PBS, and particle content was evaluated by NTA. […] As well, WJ-MSC EV, EV (10^4:1 PBMC) from conditioned medium of non-MSC fibroblasts (canine left ventricular cardiac fibroblasts) were evaluated for suppression of PBMC.

O=C(/C=C/c1ccc(/C=C/C(=O)Nc2ccc(C3=NCCN3)cc2)cc1)Nc1ccc(C2=NCCN2)cc1 [GW4869]
T cell division with WJ-MSC pre-treated with EV-release inhibitor ([1]; WJ-MSC pre-treated 48 hours at 6 μM, then across Transwell from PBMC with ConA, untreated WJ-MSC 28.2±1.4%): 51.7±13.5% | release of WJ-MSC-EV (particles released in 48 hours) (WJ-MSC; increasing concentrations, n=3 WJ-MSC lines): decreased | concentration giving maximal suppression of exosome output without unacceptable loss of viability (WJ-MSC; increasing doses applied to WJ-MSC, 48 hours): 5 to 10 µM

NC(=O)c1ccc(-c2nc(-c3ccc4c(c3)OCO4)c(-c3ccccn3)[nH]2)cc1 [SB431542]
effect of co-added inhibitor on WJ-MSC EV mediated suppression of CD4+ T cell division ([1]; 72 h): significantly reduced | % CD4+ division ([1]; Example 2, 10 μM SB431542 added to ConA+WJ-EV, ConA+WJ-EV alone 23±13%): 52±17%

Nc1nc(NCCc2ccc(O)cc2)nc2nc(-c3ccco3)nn12 [ZM241385]
effect of co-added inhibitor on WJ-MSC EV mediated suppression of CD4+ T cell division ([1]; 72 h): significantly reduced

IFN-γ: interferon-gamma used to pre-condition WJ-MSC
further suppression by WJ-MSC or WJ-MSC EV after pre-conditioning of WJ-MSC ([1]; WJ-MSC pretreated with 500 ng IFN-γ for 48 hours): not statistically significant

Triton-X
effect of pre-treating WJ-MSC EV on their suppression of CD4+ T cell division ([1]; 0.1% Triton-X, 2 μg/ml RNAse A, proteinase K 30 min 37°C, heparinase 0.006 U/ml 3 hours, 10^4 EV:1 PBMC): completely abrogated

soluble TGF-β1: recombinant human TGF-β1 (R&D Systems)
suppression of mitogen driven T cell division by exogenous TGF-β ([1]; 5 ng/ml added to ConA stimulated PBMC): not | suppression of mitogen driven T cell division by exogenous TGF-β ([1]; 10 ng/ml added to ConA stimulated PBMC): suppressed | suppression of mitogen driven T cell division by exogenous TGF-β ([1]; 50 ng/ml added to ConA stimulated PBMC): suppressed | % CD4+ division (CD4+ cells that had undergone division) ([1]; Example 2, ConA 5 μg/ml, 72 h, WJ-MSC 1:10 across transwell, WJ-EV 1:10^4, ConA alone 60±17%): 21±10%
